Experimental data taken from patent publication US4864023A, “Pyrido(3,2,1-IJ)-1,3,4-benzoxadiazine derivatives” (priority 1988, dated 1989).
≈ marks a conversion by molar mass, not a printed value. Where two headings read alike, the source gives them in different places.

What was measured:
Experiment in all cases: in vitro antibacterial activity, standard agar dilution method
Assay type in all cases: cell-based
[1] = system: Staphylococcus aureus NR 2855; settings: NR2855; Staphylococcus aureus NR 2855; aerobic; agar dilution; read-out: minimum inhibitory concentration (MIC)
[2] = system: Staphylococcus aureus FDA 209P JC-1; settings: FDA209P, read-out: minimum inhibitory concentration (MIC)
[3] = system: Enterobacter cloacae NR 2946; settings: NR2946, aerobic, read-out: minimum inhibitory concentration (MIC)
[4] = system: Citrobacter freundii IFO 12681; settings: IFO12681, aerobic, read-out: minimum inhibitory concentration (MIC)
[5] = system: Proteus rettgeri ATCC 14505; settings: Providencia rettgeri, ATCC14505, aerobic, read-out: minimum inhibitory concentration (MIC)
[6] = system: Escherichia coli NIHJ JC-2; settings: NIHJJC2, aerobic, read-out: minimum inhibitory concentration (MIC)
[7] = system: Staphylococcus epidermidis IFO 12993; settings: IFO12993, aerobic, read-out: minimum inhibitory concentration (MIC)
[8] = system: Enterococcus faecalis NR 2943; settings: NR2943, aerobic, read-out: minimum inhibitory concentration (MIC)
[9] = system: Bacillus subtilis PCI 219; settings: PCI219, aerobic, read-out: minimum inhibitory concentration (MIC)
[10] = system: Pseudomonas stutzeri IFO 12695; settings: Stutzerimonas stutzeri, IFO12695, aerobic, read-out: minimum inhibitory concentration (MIC)
Escherichia coli NR 2630 = settings: NR2630; Escherichia coli NR 2630; aerobic; agar dilution; read-out: minimum inhibitory concentration (MIC)
[11] = system: Staphylococcus aureus Smith; settings: read-out: minimum inhibitory concentration (MIC)
[12] = system: Alcaligenes faecalis IFO 13111; settings: IFO13111, aerobic, read-out: minimum inhibitory concentration (MIC)
[13] = system: Serratia marcescens IFO 12648; settings: IFO12648, aerobic, read-out: minimum inhibitory concentration (MIC)
[14] = system: Staphylococcus epidermidis NR 2942; settings: NR2942, aerobic, read-out: minimum inhibitory concentration (MIC)
[15] = system: Bordetella bronchiseptica ATCC 4617; settings: ATCC4617, aerobic, read-out: minimum inhibitory concentration (MIC)
[16] = system: Pseudomonas aeruginosa A3; settings: aerobic, read-out: minimum inhibitory concentration (MIC)
[17] = system: Klebsiella pneumoniae FDA PCI 602; settings: FDAPCI602, aerobic, read-out: minimum inhibitory concentration (MIC)
[18] = system: Pseudomonas aeruginosa NR 2950; settings: NR2950, aerobic, read-out: minimum inhibitory concentration (MIC)
[19] = system: Proteus vulgaris OX19 ATCC 6898; settings: ATCC6898, aerobic, read-out: minimum inhibitory concentration (MIC)
[20] = system: Enterobacter aerogenes NR 2945; settings: Klebsiella aerogenes, NR2945, aerobic, read-out: minimum inhibitory concentration (MIC)
[21] = system: Salmonella typhimurium IFO 12529; settings: Salmonella enterica, aerobic, read-out: minimum inhibitory concentration (MIC)
[22] = Staphylococcus aureus FDA 209P JC-1, aerobic, agar dilution
[23] = Staphylococcus aureus Smith, aerobic, agar dilution

Row | Compound | MIC [1] | MIC [3] | MIC [4] | MIC [5] | MIC [6] | MIC [7] | MIC [8] | MIC [9] | MIC [10] | MIC (Escherichia coli NR 2630) | MIC [12] | MIC [13] | MIC [14] | MIC [15] | MIC [16] | MIC [17] | MIC [18] | MIC [19] | MIC [20] | MIC [21] | other results
1 | CN1COc2c(N3CCN(CCF)CC3)c(F)cc3c(=O)c(C(=O)O)cn1c23 [Example 44] | 0.39 µg/mL (≈ 0.989 µM) | 0.2 µg/mL (≈ 0.507 µM) | 0.2 µg/mL (≈ 0.507 µM) | 1.56 µg/mL (≈ 3.96 µM) | 0.2 µg/mL (≈ 0.507 µM) | 0.78 µg/mL (≈ 1.98 µM) | 12.5 µg/mL (≈ 31.7 µM) | 0.05 µg/mL (≈ 0.127 µM) | 0.2 µg/mL (≈ 0.507 µM) | 0.05 µg/mL (≈ 0.127 µM) | 1.56 µg/mL (≈ 3.96 µM) | 0.39 µg/mL (≈ 0.989 µM) | 0.39 µg/mL (≈ 0.989 µM) | 0.39 µg/mL (≈ 0.989 µM) | 0.78 µg/mL (≈ 1.98 µM) | 0.39 µg/mL (≈ 0.989 µM) | 6.25 µg/mL (≈ 15.8 µM) | 0.1 µg/mL (≈ 0.254 µM) | 0.1 µg/mL (≈ 0.254 µM) | 0.2 µg/mL (≈ 0.507 µM) | MIC [2, 22]: 0.78 µg/mL (≈ 1.98 µM); MIC [11, 23]: 0.39 µg/mL (≈ 0.989 µM)
2 | CN1COc2c(N3CCC(O)C3)c(F)cc3c(=O)c(C(=O)O)cn1c23 (centres unmarked) [Example 21, 9-fluoro-10-(3-hydroxy-1-pyrrolidinyl)-3-methyl-7-oxo-2,3-dihydro-7H-pyrido[3,2,1-ij]-1,3,4-benzoxadiazine-6-carboxylic acid] | 0.2 µg/mL (≈ 0.573 µM) | 0.78 µg/mL (≈ 2.23 µM) | 0.78 µg/mL (≈ 2.23 µM) | 0.78 µg/mL (≈ 2.23 µM) | 0.39 µg/mL (≈ 1.12 µM) | 0.39 µg/mL (≈ 1.12 µM) | 3.13 µg/mL (≈ 8.96 µM) | 0.05 µg/mL (≈ 0.143 µM) | 0.2 µg/mL (≈ 0.573 µM) | 0.2 µg/mL (≈ 0.573 µM) | 0.78 µg/mL (≈ 2.23 µM) | 0.39 µg/mL (≈ 1.12 µM) | 0.39 µg/mL (≈ 1.12 µM) | 0.78 µg/mL (≈ 2.23 µM) | 1.56 µg/mL (≈ 4.47 µM) | 0.78 µg/mL (≈ 2.23 µM) | 3.13 µg/mL (≈ 8.96 µM) | 0.05 µg/mL (≈ 0.143 µM) | 0.2 µg/mL (≈ 0.573 µM) | 0.39 µg/mL (≈ 1.12 µM) | MIC ([2]; Staphylococcus aureus): 0.39 µg/mL (≈ 1.12 µM); MIC ([11]; Staphylococcus aureus): 0.39 µg/mL (≈ 1.12 µM)
3 | Cc1cn(-c2c(F)cc3c(=O)c(C(=O)O)cn4c3c2OCN4C)cn1 [Example 22] | 0.39 µg/mL (≈ 1.13 µM) | 0.1 µg/mL (≈ 0.29 µM) | 0.1 µg/mL (≈ 0.29 µM) | 0.78 µg/mL (≈ 2.27 µM) | 0.1 µg/mL (≈ 0.29 µM) | 0.39 µg/mL (≈ 1.13 µM) | 3.13 µg/mL (≈ 9.09 µM) | 0.05 µg/mL (≈ 0.145 µM) | 0.1 µg/mL (≈ 0.29 µM) | 0.025 µg/mL (≈ 0.0726 µM) | 3.13 µg/mL (≈ 9.09 µM) | 0.78 µg/mL (≈ 2.27 µM) | 0.2 µg/mL (≈ 0.581 µM) | 1.56 µg/mL (≈ 4.53 µM) | 1.56 µg/mL (≈ 4.53 µM) | 0.39 µg/mL (≈ 1.13 µM) | 6.25 µg/mL (≈ 18.2 µM) | 0.0065 µg/mL (≈ 0.0189 µM) | 0.1 µg/mL (≈ 0.29 µM) | 0.1 µg/mL (≈ 0.29 µM) | MIC [2, 22]: 0.2 µg/mL (≈ 0.581 µM); MIC [11, 23]: 0.2 µg/mL (≈ 0.581 µM)
4 | CN1COc2c(N3CCOCC3)c(F)cc3c(=O)c(C(=O)O)cn1c23 [Example 9, 9-Fluoro-3-methyl-10-morpholino-7-oxo-2,3-dihydro-7H-pyrido[3,2,1-ij]-1,3,4-benzoxadiazine-6-carboxylic acid] | 0.0065 µg/mL (≈ 0.0186 µM) | 0.013 µg/mL (≈ 0.0372 µM) | 0.39 µg/mL (≈ 1.12 µM) | 1.56 µg/mL (≈ 4.47 µM) | 0.1 µg/mL (≈ 0.286 µM) | 0.2 µg/mL (≈ 0.573 µM) | 12.5 µg/mL (≈ 35.8 µM) | ≤ 0.0008 µg/mL | ≤ 0.0008 µg/mL | ≤ 0.0008 µg/mL | 6.25 µg/mL (≈ 17.9 µM) | 0.78 µg/mL (≈ 2.23 µM) | 0.0065 µg/mL (≈ 0.0186 µM) | 1.56 µg/mL (≈ 4.47 µM) | 6.25 µg/mL (≈ 17.9 µM) | 3.13 µg/mL (≈ 8.96 µM) | 12.5 µg/mL (≈ 35.8 µM) | ≤ 0.0008 µg/mL | 0.0065 µg/mL (≈ 0.0186 µM) | 0.0033 µg/mL (≈ 0.00945 µM) | MIC [2, 22]: 0.2 µg/mL (≈ 0.573 µM); MIC [11, 23]: 0.0033 µg/mL (≈ 0.00945 µM)
5 | CN1COc2c(N3CCC(Cl)C3)c(F)cc3c(=O)c(C(=O)O)cn1c23 (centres unmarked) [Example 59, 10-(3-chloro-1-pyrrolidinyl)-9-fluoro-3-methyl-7-oxo-2,3-dihydro-7H-pyrido[3,2,1-ij]-1,3,4-benzoxadiazine-6-carboxylic acid] | 0.1 µg/mL (≈ 0.272 µM) | 0.78 µg/mL (≈ 2.12 µM) | 1.56 µg/mL (≈ 4.24 µM) | 3.13 µg/mL (≈ 8.51 µM) | 1.56 µg/mL (≈ 4.24 µM) | 0.39 µg/mL (≈ 1.06 µM) | 3.13 µg/mL (≈ 8.51 µM) | 0.0065 µg/mL (≈ 0.0177 µM) | 1.56 µg/mL (≈ 4.24 µM) | 0.39 µg/mL (≈ 1.06 µM) | 6.25 µg/mL (≈ 17 µM) | 3.13 µg/mL (≈ 8.51 µM) | 0.2 µg/mL (≈ 0.544 µM) | 3.13 µg/mL (≈ 8.51 µM) | 3.13 µg/mL (≈ 8.51 µM) | 3.13 µg/mL (≈ 8.51 µM) | 25 µg/mL (≈ 68 µM) | 0.2 µg/mL (≈ 0.544 µM) | 0.78 µg/mL (≈ 2.12 µM) | 1.56 µg/mL (≈ 4.24 µM) | MIC ([2]; Staphylococcus aureus): 0.39 µg/mL (≈ 1.06 µM); MIC [11, 23]: 0.05 µg/mL (≈ 0.136 µM)
